This note sets out measurements from patent publication US20260191998A1, “INDOLE PHTHALOCYANINE COMPOUND, PREPARATION METHOD THEREFOR, AND USE THEREOF IN TUMOR DIAGNOSIS IMAGING” (JIANGSU YAHONG MEDITECH CO., LTD., priority 2022, published 2026).

Counter-ions that a name gives are not always drawn.

A short description of this data set: UV-VIS absorption spectra (optical property test). Type of data set: physicochemical. Conditions: 10 μM, DMSO solution; for Absorbance × 10^4: at maximum absorption peak. The method, then:
The UV-VIS absorption spectra of the compounds (10 μM, DMSO solution) were detected using Shimadzu UV2600 spectrophotometer, and the maximum absorption peak and absorbance of each compound were obtained.

Turning to `CC[N+]1=C(/C=C/C2=C(Oc3ccc(C#N)cc3)C(=C/C=C3/N(CCCCCC(=O)Oc4c(C)cccc4C)c4ccccc4C3(C)C)/CCC2)C(C)(C)c2ccccc21` [Example 114], the “Absorbance × 10^4” value is listed as 2.46.
With `C[n+]1cccc2c1N=C(/C=C/C1=C(Cl)C(=C/C=C3/N(CCCCCC(=O)Oc4ccccc4)c4ccccc4C3(C)C)/CCC1)C2(C)C` [Example 53, 2-((E)-2-((E)-2-chloro-3-(2-((E)-3,3-dimethyl-1-(6-oxo-6-phenoxyhexyl)indolin-2-ylidene)ethenyl)cyclohex-1-en-1-yl)ethenyl)-3,3,7-trimethyl-3H-pyrrolo[2,3-b]pyridin-7-ium 2,2,2-trifluoroacetate], the “Absorbance × 10^4” value is recorded as 0.6.
Same read-out and setting: the figure for “5-carboxy-2-((E)-2-((E)-2-chloro-3-(2-((E)-3,3-dimethyl-1-(6-oxo-6-phenoxyhexyl)indolin-2-ylidene)ethenyl)cyclohex-1-en-1-yl)ethenyl)-1-ethyl-3,3-dimethyl-3H-indol-1-ium 2,2,2-trifluoroacetate [Example 118]” is 1.73; for `C[n+]1cccc2c1N=C(/C=C/C1=C(Cl)C(=C/C=C3/N(CCCCCC(=O)O)c4ccccc4C3(C)C)/CC1)C2(C)C` [Example 63, 2-((E)-2-((E)-3-(2-((E)-1-(5-carboxypentyl)-3,3-dimethylindolin-2-ylidene)ethenyl)-2-chlorocyclopent-1-en-1-yl)ethenyl)-3,3,7-trimethyl-3H-pyrrolo[2,3-b]pyridin-7-ium Chloride] it is 0.31.
Turning to `CN1C(=O)/C(=C\C2=C(Cl)C(=C/C=C3/N(CCCCC(=O)Oc4ccccc4)c4ccccc4C3(C)C)/C[N+](C)(C)C2)c2ccccc21` [Example 38], the Absorption peak was determined as 584 nm and the “Absorbance × 10^4” value was determined as 0.364.
For the compound `CCN1/C(=C/C=C2\C[N+](C)(C)CC(/C=C/C3=[N+](CC)c4ccccc4C3(C)C)=C2Cl)C(C)(C)c2ccccc21` [Example 18, 2-((E)-2-((E)-4-chloro-5-(2-((E)-1-ethyl-3,3-dimethylindolin-2-ylidene)ethenyl)-1,1-dimethyl-1,2,5,6-tetrahydropyridin-1-ium-3-yl)ethenyl)-1-ethyl-3,3-dimethyl-3H-indol-1-ium Ditrifluoroacetate], the Absorption peak amounted to 764.5 nm and the “Absorbance × 10^4” value stood at 2.12.
Consider `CC[N+]1=C(/C=C/C2=C(Cl)C(=C/C=C3/N(CCCCCC(=O)Oc4ccccc4)c4ccc5ccccc5c4C3(C)C)/CC2)C(C)(C)c2c1ccc1ccccc21` [Example 1A, 2-((E)-2-((E)-2-chloro-3-((E)-2-(1,1-dimethyl-3-(6-oxo-6-phenoxyhexyl)-1,3-dihydro-2H-benzo[e]indol-2-ylidene)ethenyl)cyclopent-1-en-1-yl)ethenyl)-3-ethyl-1,1-dimethyl-1H-benzo[e]indol-3-ium Chloride], for which the Absorption peak worked out at 860 nm and the “Absorbance × 10^4” value worked out at 2.82.
Consider `CCN1/C(=C/C=C2\CCCC(/C=C/C3=[N+](CC)c4ccccc4C3(C)C)=C2Sc2ccccc2)C(C)(C)c2ccccc21.[Cl-]` [Example 108], for which the Absorption peak is 805.5 nm and the “Absorbance × 10^4” value is recorded as 1.752.
Take `CC1(C)C(/C=C/C2=C(Cl)C(=C/C=C3/N(CCCCCC(=O)O)c4ccccc4C3(C)C)/CCC2)=[N+](CCCCCC(=O)O)c2ccccc21` [Example 85B]: the Absorption peak is on record as 796.5 nm and the “Absorbance × 10^4” value was 1.397.
Turning to `CC1(C)C(/C=C/C2=C(Cl)C(=C/C=C3/N(CCCCCC(=O)Oc4ccccc4)c4ccccc4C3(C)C)/CCC2)=[N+](CCCCCC(=O)Oc2ccccc2)c2ccccc21` [Example 5, 2-((E)-2-((E)-2-chloro-3-(2-((E)-3,3-dimethyl-1-(6-oxo-6-phenoxyhexyl)indolin-2-ylidene)ethenyl)cyclohex-1-en-1-yl)ethenyl)-3,3-dimethyl-1-(6-oxo-6-phenoxyhexyl)-3H-indol-1-ium Chloride], the Absorption peak came out at 796.5 nm and the “Absorbance × 10^4” value is given as 1.17.
In the same order, the values of `CC[N+]1=C(/C=C/C2=C(Cl)C(=C/C=C3/N(CCCCC(=O)NCCCNC(=O)CCCCN4/C(=C/C=C5\CCCC(/C=C/C6=[N+](CC)c7ccccc7C6(C)C)=C5Cl)C(C)(C)c5ccccc54)c4ccccc4C3(C)C)/CCC2)C(C)(C)c2ccccc21.[Cl-].[Cl-]` [Example 82] are 793.5 nm and 3.686.
In the case of `CC[N+]1=C(/C=C/C2=C(Cl)C(=C/C=C3/N(CCCCCC(=O)Oc4ccccc4)c4ccccc4C3(C)C)/CCC2)C(C)(C)c2cc(S(C)(=O)=O)ccc21` [Example 40, 2-((E)-2-((E)-2-chloro-3-(2-((E)-3,3-dimethyl-1-(6-oxo-6-phenoxyhexyl)indolin-2-ylidene)ethenyl)cyclohex-1-en-1-yl)ethenyl)-1-ethyl-3,3-dimethyl-5-(methylsulfonyl)-3H-indol-1-ium Chloride], the “Absorbance × 10^4” value is 0.93.
For `CC[N+]1=C(/C=C/C2=C(Cl)C(=C/C=C3/N(CCCCCC(=O)Oc4ccccc4)c4ccccc4C3(C)C)/C[N+](C)(C)C2)C(C)(C)c2ccccc21` [Example 28], the Absorption peak was 766 nm and the “Absorbance × 10^4” value worked out at 1.856.
Take `CC[N+]1=C(/C=C/C2=C(Oc3ccc(S(=O)(=O)O)cc3)C(=C/C=C3/N(CCCCCC(=O)Oc4ccccc4)c4ccccc4C3(C)C)/CCC2)C(C)(C)c2ccccc21` [Example 20, 2-((E)-2-((E)-3-(2-((E)-3,3-dimethyl-1-(6-oxo-6-phenoxyhexyl)indol-2-methylene)ethenyl)-2-(4-sulfophenoxy)cyclohex-1-en-1-yl)ethenyl)-1-ethyl-3,3-dimethyl-3H-indol-1-ium Formate]: the Absorption peak is on record as 782 nm and the “Absorbance × 10^4” value is 2.60.
Consider `CC1(C)C(/C=C/C2=C(Cl)C(=C/C=C3/N(CCCCCC(=O)Oc4ccccc4)c4ccccc4C3(C)C)/CC2)=[N+](CCCCCC(=O)O)c2ccccc21.[Cl-]` [Example 89], for which the “Absorbance × 10^4” value turned out to be 1.86.
As for `CC[N+]1=C(/C=C/C2=C(Br)C(=C/C=C3/N(CCCCCC(=O)Oc4ccccc4)c4ccccc4C3(C)C)/CCC2)C(C)(C)c2ccccc21` [Example 54, 2-((E)-2-((E)-2-bromo-3-(2-((E)-3,3-dimethyl-1-(6-oxo-6-phenoxyhexyl)indolin-2-ylidene)ethenyl)cyclohex-1-en-1-yl)ethenyl)-1-ethyl-3,3-dimethyl-3H-indol-1-ium Formate], the “Absorbance × 10^4” value worked out at 2.57.
With `CC[N+]1=C(/C=C/C2=C(Cl)C(=C/C=C3/N(CCOCCC(=O)O)c4ccccc4C3(C)C)/CCC2)C(C)(C)c2cc(C(=O)O)ccc21.[Cl-]` [Example 91], the “Absorbance × 10^4” value is recorded as 0.46.
As for `CC1(C)C(/C=C/C2=C(Cl)C(=C/C=C3/N(CCCCCC(=O)O)c4ccccc4C3(C)C)/CCC2)=[N+](CCCCCC(=O)Oc2ccccc2)c2ccccc21` [Example 85A], the Absorption peak is on record as 796.5 nm and the “Absorbance × 10^4” value worked out at 2.239.
As for `C[N+]1=C(/C=C/C2=C(Cl)C(=C/C=C3/N(CCOCCC(=O)Oc4ccccc4)c4ccccc4C3(C)C)/CCC2)C(C)(C)c2ccccc21` [Example 52, 2-((E)-2-((E)-2-chloro-3-(2-((E)-3,3-dimethyl-1-(2-(3-oxo-3-phenoxypropoxy)ethyl)indolin-2-ylidene)ethenyl)cyclohex-1-en-1-yl)ethenyl)-1,3,3-trimethyl-3H-indol-1-ium Chloride], the “Absorbance × 10^4” value is given as 2.14.
`CC[N+]1=C(/C=C/C2=C(Cl)C(=C/C=C3/N(CCCCCC(=O)Oc4ccccc4)c4ccccc4C3(C)C)/C[N+](C)(C)C2)C(C)(C)c2ccccc21` [Example 16, 2-((E)-2-((E)-4-chloro-5-(2-((E)-3,3-dimethyl-1-(6-oxo-6-phenoxyhexyl)indolin-2-ylidene)ethenyl)-1,1-dimethyl-1,2,5,6-tetrahydropyridin-1-ium-3-yl)ethenyl)-1-ethyl-3,3-dimethyl-3H-indol-1-ium Dichloride]: the Absorption peak came to 766 nm and the “Absorbance × 10^4” value was found to be 1.71.
The matching figures for `CC[N+]1=C(/C=C/C2=C(Cl)C(=C/C=C3/N(CCCCCC(=O)Oc4ccccc4)c4ccccc4C3(C)C)/CC2)C(C)(C)c2cc(S(=O)(=O)O)ccc21` [Example 22, 2-((E)-2-((E)-2-chloro-3-(2-((E)-3,3-dimethyl-1-(6-oxo-6-phenoxyhexyl)indolin-2-ylidene)ethenyl)cyclopent-1-en-1-yl)ethenyl)-1-ethyl-3,3-dimethyl-5-sulfonyl-3H-indol-1-ium Chloride]: 827 nm and 1.97.
In the same order, the values of `CC[N+]1=C(/C=C/C2=C(Sc3ccccc3)C(=C/C=C3/N(CCCCCC(=O)Oc4ccccc4)c4ccccc4C3(C)C)/CCC2)C(C)(C)c2ccccc21.[Cl-]` [Example 106] are 807.5 nm and 1.997.
As for “2-((E)-2-((E)-2-bromo-3-(2-((E)-3,3-dimethyl-1-(6-oxo-6-phenoxyhexyl)indolin-2-ylidene)ethenyl)cyclohex-1-en-1-yl)ethenyl)-1,3,3-trimethyl-3H-indol-1-ium 2,2,2-trifluoroacetate [Example 58]”, the “Absorbance × 10^4” value is 2.21.
For the compound `CC1(C)C(/C=C/C2=C(Cl)C(=C/C=C3/N(CCCCCC(=O)O)c4ccccc4C3(C)C)/CCC2)=[N+](CCO)c2ccccc21` [Example 49, 2-((E)-2-((E)-3-(2-((E)-1-(5-carboxypentyl)-3,3-dimethylindolin-2-ylidene)ethenyl)-2-chlorocyclohex-1-en-1-yl)ethenyl)-1-(2-hydroxyethyl)-3,3-dimethyl-3H-indol-1-ium Chloride], the “Absorbance × 10^4” value turned out to be 2.3.
Take `CC1(C)C(/C=C/C2=C(Cl)C(=C/C=C3/N(CCCCCC(=O)Oc4ccccc4)c4ccccc4C3(C)C)/C[N+](C)(C)C2)=[N+](CCCCCC(=O)Oc2ccccc2)c2ccccc21` [Example 14, 2-((E)-2-((E)-4-chloro-5-(2-((E)-3,3-dimethyl-1-(6-oxo-6-phenoxyhexyl)indolin-2-ylidene)ethenyl)-1,1-dimethyl-1,2,5,6-tetrahydropyridin-1-ium-3-yl)ethenyl)-3,3-dimethyl-1-(6-oxo-6-phenoxyhexyl)-3H-indol-1-ium Dichloride]: the Absorption peak was found to be 767.5 nm and the “Absorbance × 10^4” value was determined as 1.71.
